Reference: paper PMC10082729, “First study on in vitro antiviral and virucidal effects of flavonoids against feline infectious peritonitis virus at the early stage of infection” (Veterinary World, 2023)
≈ marks a conversion by molar mass, not a printed value. Where two headings read alike, the source gives them in different places.

What was measured:
FIPV 3CL^pro = details: cited from earlier work
CRFK cells [1] = tested on: CRFK cells
[2] = tested on: Herpes simplex virus type 1; details: in vitro; cited from earlier work
FIPV [3] = assay: Post-viral entry assay, FIPV-infected cells by IPMA; details: for selectivity ratio at 24 h: cat
in vitro = details: cat
Coxsackievirus B3 [4] = tested on: Coxsackievirus B3; parameters: method as in PMID 24963331; details: cited from earlier work
Coxsackievirus B3 [5] = tested on: Coxsackievirus B3; parameters: method as in PMID 24963331; details: in vitro; cited from earlier work
SARS-CoV-2 = details: in vitro, cited from earlier work
Marek’s disease virus = tested on: Marek’s disease virus; parameters: method as in PMID 33008383; details: at 20 µg/mL; cited from earlier work
[6] = tested on: African swine fever virus; details: in vitro, at 10 µg/mL; cited from earlier work
CRFK cells [7] = assay: Cell cytotoxicity and cell viability (MTS assay); details: 24 h
SARS-CoV-2 3CL^pro = tested on: SARS-CoV-2 3CL^pro; parameters: method as in PMID 32963564; details: in vitro; cited from earlier work
Hepatitis B virus = details: in vitro; cited from earlier work
Zika virus = tested on: Zika virus; parameters: method as in PMID 27344138; details: in vitro; cited from earlier work
[8] = tested on: Human immunodeficiency virus reverse transcriptase; parameters: method as in PMID 21730371; details: in vitro; cited from earlier work
Enterovirus A71 = tested on: Enterovirus A71; parameters: method as in PMID 19537794; details: in vitro, at 10 µM; cited from earlier work
[9] = tested on: Foot-and-mouth disease virus; details: virus and compound cotreated before incubating with cells; read-out: EC50 (virucidal, cotreatment); cited from earlier work
[10] = tested on: Foot-and-mouth disease virus; details: in vitro, post-viral entry; cited from earlier work
FMDV 3C^pro = details: cited from earlier work
FIPV [11] = assay: Post-viral entry assay, viral load by RT-qPCR; type: cell-based, feline infectious peritonitis virus; details: Alphacoronavirus 1, read-out: inhibition of viral copy numbers
Protocol: Crandell–Rees feline kidney cells were seeded into a 96-well plate at 1.8 × 10^4 cells/well and cultured in MEM containing 7% FBS. Pre-compound, attachment, penetration, post-viral entry, and virucidal assays were performed based on each step of viral infection. […] For the antiviral activity assay, FIPV was used at 50 TCID50/well in all experiments. Crandell–Rees feline kidney cells were inoculated with FIPV and treated with 0.1% DMSO as vehicle control. GC376 (TargetMol®, Wellesley Hills, MA, USA) was used as the FIPV-specific drug control. Three experiments were performed in duplicate wells for each compound.
To determine whether the compounds could inhibit viral replication and translation in the host cells after infection, CRFK cells were inoculated with FIPV at 37°C for 2 h for viral adsorption.
Intracellular and extracellular FIPV from infected CRFK cells was determined using RT-qPCR, as described. […] A standard curve of viral copy numbers was generated from the plasmid containing the FIPV 3′UTR sequence by 10-fold serially diluting the plasmid from […] plasmid molecules/μL and using it for viral load quantification. Quantitative polymerase chain reaction was performed from two biological replicates and three independent experiments were performed.

FIPV [12] = assay: Cotreatment (virucidal) assay, IPMA; type: cell-based, feline infectious peritonitis virus; details: Alphacoronavirus 1, FIPV and compound coincubated with cells at 37°C for 2 h, 24 h
FIPV [13] = assay: Time-of-addition (ToA) assay, RT-qPCR; type: cell-based, feline infectious peritonitis virus
FIPV [14] = assay: Virucidal effect at different time points, TCID50 titration; type: cell-based, feline infectious peritonitis virus; details: 75 μM, direct incubation with FIPV at 37°C, compared with untreated control
Protocol: Feline infectious peritonitis virus inoculum at 50 TCID50/mL was directly incubated at the maximum concentrations of the compounds that were non-cytotoxic at 37°C in a 1.5 mL microcentrifuge tube for 0, 15, 30, 60, and 120 min. After the indicated incubation, the mixtures of virus and compounds were immediately subjected to viral titration according to Reed and Muench’s method. Viral titers in compound-treated wells were compared with the untreated control.

Duck hepatitis A virus = tested on: Duck hepatitis A virus; parameters: method as in PMID 27927057; details: in vitro, at 20 µg/mL; cited from earlier work
Influenza A virus = details: in vitro; cited from earlier work
SARS-CoV-2 RdRp = details: in vitro; cited from earlier work
[15] = tested on: Respiratory syncytial virus; details: cited from earlier work
[16] = tested on: SARS-CoV 3a channel protein; details: in vitro; cited from earlier work
[17] = post-viral entry, FIPV 50 TCID50/well in CRFK cells, 24-HPI, IPMA

COc1cc(O)c2c(=O)cc(-c3ccc(O)c(O)c3)oc2c1 [7-methylluteolin]
IC50 (FIPV 3CL^pro): 28.5 ± 4.2 µM

O=c1cc(-c2ccc(O)c(-c3c(O)cc(O)c4c(=O)cc(-c5ccc(O)cc5)oc34)c2)oc2cc(O)cc(O)c12 [Amentoflavone]
CC10 (CRFK cells [1]; cat, 24 h): 155.50 ± 2.19 µM
EC50 [2]: 11.1 to 28.2 µM
EC50 (FIPV [3]; Alphacoronavirus 1, CRFK): 144.1 ± 0.01 µM
EC90 (FIPV [3]; Alphacoronavirus 1, CRFK): 242.9 ± 2.4 µM
selectivity ratio at 24 h (FIPV [3]): 1.37
CC50 at 24 h (in vitro; CC50): 197 ± 2.29 µM
IC50 (virucidal) (Coxsackievirus B3 [4]): 19 to 41 µg/mL
EC50 (Coxsackievirus B3 [5]): 25 µM

O=C(O)[C@H]1O[C@@H](Oc2cc3oc(-c4ccccc4)cc(=O)c3c(O)c2O)[C@H](O)[C@@H](O)[C@@H]1O [Baicalin]
EC50 (SARS-CoV-2): 8 to 9 µM
CC50 at 24 h (in vitro; CC50): > 200 µM
virucidal effect (Marek’s disease virus): Virucidal effect

COc1ccc(-c2cc(=O)c3c(O)cc(O[C@@H]4O[C@H](CO[C@@H]5O[C@@H](C)[C@H](O)[C@@H](O)[C@H]5O)[C@@H](O)[C@H](O)[C@H]4O)cc3o2)cc1O [Diosmin]
inhibition [6]: African swine fever virus (in vitro: 40% inhibition at 10 µg/mL)
CC50 at 24 h (in vitro; CC50): > 200 µM

O=C(O[C@@H]1Cc2c(O)cc(O)cc2O[C@@H]1c1cc(O)c(O)c(O)c1)c1cc(O)c(O)c(O)c1 [Epigallocatechin gallate]
CC10 (CRFK cells [7]): 84.98 ± 1.93 µM
CC50 (CRFK cells [7]): 282.2 ± 0.12 µM
IC50 (SARS-CoV-2 3CL^pro): 7.58 µg/mL (≈ 16.5 µM)
EC50 (Hepatitis B virus): < 10 µM
Selective index CC50/EC50 (FIPV [3]; post-viral entry, CRFK cells): 3.57
EC50 (FIPV [3]; [17]): 79.07 ± 0.01 µM
EC90 (FIPV [3]; [17]): 196.5 ± 1.96 µM
EC50 (Zika virus): 21.4 µM

O=C(O[C@@H]1Cc2c(O)cc(O)cc2O[C@H]1c1cc(O)c(O)c(O)c1)c1cc(O)c(O)c(O)c1 [Gallocatechin Gallate]
EC50 [8]: 3.5 µM
CC50 at 24 h (in vitro): > 200 µM
virus reduction (Enterovirus A71): 56%

COc1ccc(-c2cc(=O)c3c(O)cc(O)c(-c4cc(-c5cc(=O)c6c(O)cc(O)cc6o5)ccc4OC)c3o2)cc1 [Isoginkgetin]
EC50 [9]: 2.01 ± 0.07 µM
EC50 [10]: 1.93 ± 0.21 µM
IC50 (FMDV 3C^pro): 39 µM
CC10 (CRFK cells [7]): 77.43 ± 2.52 µM
inhibition at 10 µM (FIPV [11]): > 90%
EC50 (SARS-CoV-2; infected Vero cells): 22.8 µM
EC50 (FIPV [3]; Alphacoronavirus 1, CRFK): 4.77 ± 0.09 µM
EC90 (FIPV [3]; Alphacoronavirus 1, CRFK): 28.8 ± 1.46 µM
selectivity ratio at 24 h (FIPV [3]; Selective index CC50/EC50, post-viral entry, CRFK cells): 41.8
CC50 at 24 h (in vitro): 199.4 ± 0.33 µM
viability at 24 h, 75 µM (in vitro): ≥ 90%
EC50 (FIPV [12]): 40.6 ± 1.5 µM
time of addition of maximal efficiency (FIPV [13]; 28.82 μM, harvested at 10-HPI, RT-qPCR): 2–4 HPI
effect on FIPV (FIPV [13]; added at 0-HPI, 28.82 μM, RT-qPCR at 10-HPI): major inhibitory effect
time of addition at which FIPV replication is inhibited (FIPV [13]; compound at EC90, harvested at 10-HPI, RT-qPCR): 0–6 HPI
decrease of viral titer (FIPV [14]; 60 min): 2 log10 TCID50/mL
decrease of viral titer (FIPV [14]; 120 min): 1.89 log10 TCID50/mL

COc1ccc(-c2cc(=O)c3c(O)cc(O[C@@H]4O[C@H](CO[C@@H]5O[C@@H](C)[C@H](O)[C@@H](O)[C@H]5O)[C@@H](O)[C@H](O)[C@H]4O)cc3o2)cc1 [Linarin]
CC50 (CRFK cells [1]): > 200 µM
inhibition (Duck hepatitis A virus): Duck hepatitis A virus (in vitro: 69.3% inhibition at 20 µg/mL)

O=c1cc(-c2ccc(O)c(O)c2)oc2cc(O)cc(O)c12 [Luteolin]
EC50 (Influenza A virus): 6.89 to 7.15 µM
CC10 (CRFK cells [1]; cat, 24 h): 136.80 ± 2.37 µM
CC50 (CRFK cells [1]; cat, 24 h): 248 ± 3.4 µM
IC50 (SARS-CoV-2 RdRp): 4.6 µM
EC50 (FIPV [3]; Alphacoronavirus 1, CRFK): 36.28 ± 0.03 µM
EC90 (FIPV [3]; Alphacoronavirus 1, CRFK): 66 ± 1.82 µM
antiviral activity (in vitro concentration) [15]: 2.08 to 24.71 µM
CC50 at 24 h (in vitro; CC50): > 200 µM

O=C(/C=C/c1ccc(O)cc1)OC[C@H]1O[C@@H](Oc2c(-c3ccc(O)cc3)oc3cc(O)cc(O)c3c2=O)[C@H](O)[C@@H](O)[C@@H]1O [Tiliroside]
IC50 [16]: 20 µM
CC50 at 24 h (in vitro): 65.2 µM
